Measured values from ChEMBL document CHEMBL1149743, “Linear diterpenes from the Caribbean sponge Myrmekioderma styx” (J Nat Prod, 1992).
Converted amounts (≈) assume the structure as drawn.

Experiments:
[1] = (§1) Toxicity against Artemia salina after 24 hrs; type: organism-based; details: in vivo
Artemia salina = assay: as §1; type: organism-based; details: in vivo, 24 h

Compound | LC50 at 24 h [1] | Activity (Artemia salina)
C=CC(C)(O)/C=C/C=C(\C)CC/C=C(\C)CC(=O)CC(C)C (centres undefined) | 3 µg/mL (≈ 9.85 µM) | 
C=CC(C)(O)/C=C/C=C(\C)CC/C=C(\C)CCC=C(C)C (centres undefined) |  | Toxic
C=CC(C)(O)/C=C/C=C(\C)CCC/C(C)=C\C(=O)C=C(C)C (centres undefined) | 163 µg/mL (≈ 539 µM) | 
C=CC(C)(O)/C=C/C=C(\C)CC/C=C(\C)CC(=O)C=C(C)C (centres undefined) [STYXENOL A] | 154 µg/mL (≈ 509 µM) | 
